Data as given in ChEMBL document CHEMBL1201862, “PubChem BioAssay data set” (2004).
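Interpolation was linear, between the two tested concentrations surrounding the appropriate level; five concentrations were tested over 48 hours in 96-well plates. At the GI50, growth is halved.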 Calls of active or inactive are those of the source. No stated cut-off is given here; in the data, active = GI50 up to about 1.1 µM and inactive = higher.

How the values were obtained:
Test in all cases: DTP human tumour cell line panel, 48 h
RXF 631 = tested on: RXF 631
LXFL 529 = tested on: LXFL 529
XF498 = tested on: XF498
HOP-18 = tested on: HOP-18
SNB-78 = tested on: SNB-78
DMS-273 = tested on: DMS-273
DLD-1 = tested on: DLD-1
T47D = tested on: T47D
DU-145 = tested on: DU-145

Measured: GI50

O=c1[nH]c(Br)nc2c(Br)c[nH]c12
inactive: RXF 631 > 100 µM | LXFL 529 > 100 µM | XF498 > 100 µM | HOP-18 > 100 µM | SNB-78 > 100 µM | DMS-273 > 100 µM | DLD-1 > 100 µM

Cc1ccc(C)c(NC(=O)CC2C(=O)Nc3ccccc3S2(=O)=O)c1 (stereo not drawn)
inactive: RXF 631 > 100 µM | LXFL 529 > 100 µM | XF498 27.8 µM | SNB-78 68.4 µM | DMS-273 28.1 µM | DLD-1 > 100 µM

O=C(O)c1cc(=O)c2[nH]c3ccccc3c2s1
inactive: RXF 631 > 100 µM | LXFL 529 > 100 µM | XF498 > 100 µM | SNB-78 > 100 µM | DLD-1 > 100 µM

N#Cc1cc(NC(=O)c2ccccc2)c(=O)n2c1[nH]c1ccccc12
inactive: RXF 631 46.9 µM | LXFL 529 33 µM | XF498 31.4 µM | HOP-18 7.45 µM | SNB-78 35 µM | DMS-273 30.1 µM | DLD-1 28.9 µM

Clc1ccc2nc(-c3ccccc3)nc(Cl)c2c1
inactive: RXF 631 29.6 µM | LXFL 529 52.7 µM | SNB-78 88.1 µM | DMS-273 55.5 µM | DLD-1 60.1 µM

N[C@H](COCc1ccccc1)c1ccccc1
inactive: LXFL 529 20.5 µM | XF498 21.1 µM | HOP-18 25.9 µM | SNB-78 33.4 µM | DMS-273 23.1 µM | DLD-1 24.9 µM

Cc1nc(-n2nc(-c3ccccc3)cc2-c2ccccc2)sc1C(=O)CC(=O)C(=O)Nc1ccc(O)cc1
inactive: RXF 631 > 100 µM | LXFL 529 > 100 µM | HOP-18 > 100 µM | SNB-78 > 100 µM | DMS-273 > 100 µM | DLD-1 > 100 µM

CC(=O)O/N=C(/C)c1ccccc1O
inactive: LXFL 529 > 100 µM | XF498 > 100 µM | HOP-18 > 100 µM | SNB-78 > 100 µM | DMS-273 > 100 µM | DLD-1 > 100 µM

COc1ccc2[nH]c3c(c2c1)CCN(C)CC3
inactive: RXF 631 > 100 µM | XF498 > 100 µM | HOP-18 > 100 µM | SNB-78 > 100 µM | DMS-273 > 100 µM | DLD-1 > 100 µM

CNCc1cc(OC)ccc1-c1ccc(OC)c(OC)c1OC
inactive: RXF 631 > 100 µM | LXFL 529 > 100 µM | XF498 85.3 µM | HOP-18 > 32.5 µM | SNB-78 > 100 µM | DMS-273 > 100 µM | DLD-1 > 100 µM

COc1ccc2[nH]c3c(C)c4c(c(C)c3c2c1)CN(C)CC4
inactive: RXF 631 21.7 µM | LXFL 529 17 µM | HOP-18 10.6 µM | SNB-78 25.3 µM | DMS-273 13 µM | DLD-1 22.6 µM

Nc1nc(OCc2ccccc2)c2nc[nH]c2n1 [6-O-BENZYLGUANINE]
inactive: RXF 631 69.7 µM | LXFL 529 93.3 µM | HOP-18 87.3 µM | SNB-78 79.8 µM | DMS-273 93.1 µM | DLD-1 64.6 µM

O=C1c2ccccc2C(=O)c2c(O)c(NCCNCCO)cc(O)c21
inactive: LXFL 529 5.96 µM | XF498 6.95 µM | HOP-18 6.49 µM | SNB-78 5.21 µM | DMS-273 3.81 µM | DLD-1 3.13 µM

CC1(C)CC(=O)C=C(NC(=O)c2ccccc2)C1
inactive: RXF 631 > 100 µM | LXFL 529 > 100 µM | XF498 > 100 µM | SNB-78 > 100 µM | DMS-273 > 100 µM | DLD-1 > 100 µM

SCc1ccc(-c2ccc(CS)cc2)cc1
inactive: T47D 19.7 µM | DU-145 > 10 µM | LXFL 529 14.4 µM | XF498 20.6 µM | HOP-18 16.4 µM | SNB-78 18.3 µM | DMS-273 24.2 µM | DLD-1 17 µM
